{"source": "patent EP4273147A1", "about": "“SUBSTITUTED SPIROLACTAMS, SALTS THEREOF AND THEIR USE AS HERBICIDALLY ACTIVE SUBSTANCES” (Bayer Aktiengesellschaft, priority 2022, dated 2023)", "key": {"LOLRI [1]": {"tested_on": "LOLRI", "assay": "Herbicidal pre-emergence action (Table A3)", "format": "in vivo, Lolium rigidum", "settings": "application rate 1280 g/ha; visual grading after ca. 3 weeks", "procedure,_shortened": "(§1)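 Weed seeds are sown into sandy loam in pots and covered with soil, with two species per pot, one monocot and one dicot.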"}, "SETVI [2]": {"tested_on": "SETVI", "assay": "Herbicidal pre-emergence action, section C (Table C10)", "format": "in vivo, Setaria viridis", "settings": "application rate 320 g/ha; visual grading after ca. 3 weeks"}, "STEME": {"tested_on": "STEME", "assay": "Herbicidal pre-emergence action (Table A6)", "format": "in vivo, Stellaria media", "settings": "application rate 320 g/ha; visual grading after ca. 3 weeks", "procedure,_shortened": "as §1"}, "ORYZA [3]": {"tested_on": "ORYZA", "assay": "Post-emergence effects on crop plants (Table F3)", "format": "in vivo, Oryza sativa", "settings": "application rate 320 g/ha, crop plant ORYZA", "excerpt": "(§2) 2 to 3 weeks after sowing, the test plants were sprayed in the single-leaf stage."}, "GLXMA": {"tested_on": "GLXMA", "assay": "Post-emergence effects on crop plants (Table F4)", "format": "in vivo, Glycine max", "settings": "application rate 80 g/ha, crop plant GLXMA", "excerpt": "as §2"}, "SETVI [4]": {"tested_on": "SETVI", "assay": "Herbicidal pre-emergence action (Table A5)", "format": "in vivo, Setaria viridis", "settings": "application rate 320 g/ha; visual grading after ca. 3 weeks", "procedure,_shortened": "as §1"}, "ORYZA [5]": {"tested_on": "ORYZA", "assay": "Pre-emergence effects on crop plants (Table D3)", "settings": "crop plant; application rate 320 g/ha; visual grading after ca. 3 weeks"}, "POAAN [6]": {"tested_on": "POAAN", "assay": "Herbicidal post-emergence action (Table B7)", "format": "in vivo, Poa annua", "settings": "application rate 320 g/ha", "procedure,_shortened": "(§3)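 Visual rating against untreated plants (0% = as control, 100% = dead) made roughly 3 weeks after application. Weed species were grown in sandy loam pots under greenhouse conditions and sprayed at the one-leaf stage, 2–3 weeks post-sowing.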"}, "TRZAS [7]": {"tested_on": "TRZAS", "assay": "Pre-emergence effects on crop plants (Table D2)", "format": "in vivo, Triticum aestivum", "settings": "crop plant; application rate 80 g/ha; visual grading after ca. 3 weeks"}, "TRZAS [8]": {"tested_on": "TRZAS", "assay": "Post-emergence effects on crop plants (Table F2)", "format": "in vivo, Triticum aestivum", "settings": "application rate 80 g/ha, crop plant TRZAS", "excerpt": "as §2"}, "POAAN [9]": {"tested_on": "POAAN", "assay": "Herbicidal pre-emergence action (Table A7)", "format": "in vivo, Poa annua", "settings": "application rate 320 g/ha; visual grading after ca. 3 weeks", "procedure,_shortened": "as §1"}, "VERPE": {"tested_on": "VERPE", "assay": "Herbicidal pre-emergence action, section C (Table C11)", "format": "in vivo, Veronica persica", "settings": "application rate 320 g/ha; visual grading after ca. 3 weeks"}, "ZEAMX [10]": {"tested_on": "ZEAMX", "assay": "Post-emergence effects on crop plants (Table F1)", "format": "in vivo, Zea mays", "settings": "application rate 320 g/ha, crop plant ZEAMX", "excerpt": "as §2"}, "LOLRI [11]": {"tested_on": "LOLRI", "assay": "Herbicidal pre-emergence action, section C (Table C7)", "format": "in vivo, Lolium rigidum", "settings": "application rate 320 g/ha; visual grading after ca. 3 weeks"}, "MATIN [12]": {"tested_on": "MATIN", "assay": "Herbicidal pre-emergence action (Table A4)", "format": "in vivo, Matricaria inodora", "settings": "application rate 1280 g/ha; visual grading after ca. 3 weeks", "procedure,_shortened": "as §1"}, "ECHCG [13]": {"tested_on": "ECHCG", "assay": "Herbicidal pre-emergence action, section C (Table C6)", "format": "in vivo, Echinochloa crus-galli", "settings": "application rate 80 g/ha; visual grading after ca. 3 weeks"}, "ALOMY [14]": {"tested_on": "ALOMY", "assay": "Herbicidal post-emergence action, section E (Table E2)", "format": "in vivo, Alopecurus myosuroides", "settings": "application rate 320 g/ha; assessed visually after ca. 3 weeks", "excerpt": "as §2"}, "BRSNW [15]": {"tested_on": "BRSNW", "assay": "Pre-emergence effects on crop plants (Table D5)", "format": "in vivo, Brassica napus", "settings": "crop plant; application rate 320 g/ha; visual grading after ca. 3 weeks", "quoted_text": "Seeds of mono- and dicotyledonous weed plants and crop plants were sown, in plastic or organic planting pots, in sandy loam and covered with soil. The compounds according to the invention, formulated in the form of wettable powders (WP) or as emulsifiable concentrates (EC), were applied to the surface of the covering soil as aqueous suspension or emulsion, with the addition of 0.5% of an additive, at an application rate of 600 1 of water/ha (converted).\nFollowing treatment, the pots were placed in a greenhouse and kept under optimum growth conditions for the test plants."}, "VIOTR": {"tested_on": "VIOTR", "assay": "Herbicidal pre-emergence action, section C (Table C12)", "format": "in vivo, Viola tricolor", "settings": "application rate 320 g/ha; visual grading after ca. 3 weeks"}, "BRSNW [16]": {"tested_on": "BRSNW", "assay": "Post-emergence effects on crop plants (Table F5)", "format": "in vivo, Brassica napus", "settings": "application rate 320 g/ha, crop plant BRSNW", "excerpt": "as §2"}, "ALOMY [17]": {"tested_on": "ALOMY", "assay": "Herbicidal pre-emergence action, section C (Table C2)", "format": "in vivo, Alopecurus myosuroides", "settings": "application rate 80 g/ha; visual grading after ca. 3 weeks"}, "ZEAMX [18]": {"tested_on": "ZEAMX", "assay": "Pre-emergence effects on crop plants (Table D1)", "format": "in vivo, Zea mays", "settings": "crop plant; application rate 80 g/ha; visual grading after ca. 3 weeks"}, "MATIN [19]": {"tested_on": "MATIN", "assay": "Herbicidal post-emergence action (Table B6)", "format": "in vivo, Matricaria inodora", "settings": "application rate 1280 g/ha; rated visually after about 3 weeks", "procedure,_shortened": "as §3"}, "ECHCG [20]": {"tested_on": "ECHCG", "assay": "Herbicidal pre-emergence action (Table A2)", "format": "in vivo, Echinochloa crus-galli", "settings": "application rate 320 g/ha; visual grading after ca. 3 weeks", "procedure,_shortened": "as §1"}, "ABUTH": {"tested_on": "ABUTH", "assay": "Herbicidal pre-emergence action (Table A1)", "format": "in vivo, Abutilon theophrasti", "settings": "application rate 1280 g/ha; visual grading after ca. 3 weeks vs untreated controls (100% = plants have died off, 0% = as control plants)", "procedure,_shortened": "as §1"}}, "data": [{"smiles": "O=C1N(Cc2cccc(F)c2F)CCCC12CCCN(Cc1cccc(F)c1F)C2=O", "note": "(racemic) [I-012]", "values": [{"measurement": "pre-emergence activity against LOLRI", "setting": "LOLRI [1]", "value": 100, "unit": "%"}, {"measurement": "pre-emergence activity against SETVI", "setting": "SETVI [2]", "value": 100, "unit": "%"}, {"measurement": "pre-emergence activity against STEME", "setting": "STEME", "value": 90, "unit": "%"}, {"measurement": "post-emergence activity against ORYZA", "setting": "ORYZA [3]", "value": 10, "unit": "%"}, {"measurement": "post-emergence activity against GLXMA", "setting": "GLXMA", "value": 0, "unit": "%"}, {"measurement": "pre-emergence activity against SETVI", "setting": "SETVI [4]", "value": 100, "unit": "%"}, {"measurement": "pre-emergence activity against ORYZA", "setting": "ORYZA [5]", "value": 10, "unit": "%"}, {"measurement": "post-emergence activity against POAAN", "setting": "POAAN [6]", "value": 100, "unit": "%"}, {"measurement": "pre-emergence activity against TRZAS", "setting": "TRZAS [7]", "value": 20, "unit": "%"}, {"measurement": "post-emergence activity against TRZAS", "setting": "TRZAS [8]", "value": 0, "unit": "%"}, {"measurement": "pre-emergence activity against POAAN", "setting": "POAAN [9]", "value": 100, "unit": "%"}, {"measurement": "pre-emergence activity against VERPE", "setting": "VERPE", "value": 80, "unit": "%"}, {"measurement": "post-emergence activity against ZEAMX", "setting": "ZEAMX [10]", "value": 0, "unit": "%"}, {"measurement": "pre-emergence activity against LOLRI", "setting": "LOLRI [11]", "value": 100, "unit": "%"}, {"measurement": "pre-emergence activity against MATIN", "setting": "MATIN [12]", "value": 90, "unit": "%"}, {"measurement": "pre-emergence activity against ECHCG", "setting": "ECHCG [13]", "value": 100, "unit": "%"}, {"measurement": "post-emergence activity against ALOMY", "setting": "ALOMY [14]", "value": 80, "unit": "%"}, {"measurement": "pre-emergence activity against BRSNW", "setting": "BRSNW [15]", "value": 0, "unit": "%"}, {"measurement": "pre-emergence activity against VIOTR", "setting": "VIOTR", "value": 80, "unit": "%"}, {"measurement": "post-emergence activity against BRSNW", "setting": "BRSNW [16]", "value": 20, "unit": "%"}, {"measurement": "pre-emergence activity against ALOMY", "setting": "ALOMY [17]", "value": 90, "unit": "%"}, {"measurement": "pre-emergence activity against ZEAMX", "setting": "ZEAMX [18]", "value": 20, "unit": "%"}, {"measurement": "post-emergence activity against MATIN", "setting": "MATIN [19]", "value": 90, "unit": "%"}, {"measurement": "pre-emergence activity against ECHCG", "setting": "ECHCG [20]", "value": 100, "unit": "%"}, {"measurement": "pre-emergence activity against ABUTH", "setting": "ABUTH", "value": 90, "unit": "%"}]}]}
